Test results reported in patent US20230077362A1 (CORTEVA AGRISCIENCE LLC, priority 2019, published 2023).
Where two headings read alike, the source gives them in different places.

Key:
Type in all cases: in vivo
[1] = tested on: Beet Armyworm (Spodoptera exigua) ("BAW"), second instar larvae; assay: Bioassay on beet armyworm (BAW), 128-well diet tray assay; conditions: Spodoptera exigua
Method in brief: (§1)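 Covered trays were held at 25° C. under a 14:10 light-dark cycle for five to seven days. Percent mortality was then scored in each well, and activity across eight wells was averaged.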

[2] = tested on: Cabbage Looper (Trichoplusia ni) ("CL"); assay: Bioassay on Cabbage Looper (CL), Example D, procedure of Example A; conditions: read-out: CL % Control (or Mortality) Rating
Description: (§2) Example D: Bioassays on Cabbage Looper (Trichoplusia ni) (“CL”) and Diamondback Moth (Plutella xylostella) (“DBM”)
(§3) Certain molecules disclosed in this document were tested against CL and DBM (diamondback moth, Plutella xylostella) using procedures described above for BAW and CL (Example A). The results are reported as in the “CL & DBM Rating Table” at concentrations of 0.0005 and 0.00005 ppm, respectively, and are given Table D.

[3] = tested on: Green Peach Aphid ("GPA") (Myzus persicae), wingless adult and nymph stages; assay: Bioassay on green peach aphid (GPA), foliar spray on infested cabbage seedlings; conditions: Myzus persicae, foliar, 72 h
Method in brief: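 Values are corrected % control, 100*(X−Y)/X, from live aphid counts per plant under a microscope, treated versus solvent-check plants. Four infested seedlings (20-50 GPA each) per treatment were sprayed to runoff and kept three days near 25° C at ambient RH.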

[4] = tested on: Cabbage Looper (Trichoplusia ni) ("CL"), second instar larvae; assay: Bioassay on cabbage looper (CL), 128-well diet tray assay; conditions: Trichoplusia ni
Method in brief: as §1

[5] = tested on: Diamondback Moth (Plutella xylostella) ("DBM"); assay: Bioassay on Diamondback Moth (DBM), Example D, procedure of Example A; conditions: 0.00005 ppm, read-out: DBM % Control (or Mortality) Rating
Description: as §2, §3

[6] = tested on: Yellow Fever Mosquito "YFM" (Aedes aegypti), about 1 day-old larvae; assay: Bioassay on yellow fever mosquito (YFM), 96-well plate larval assay; conditions: for YFM (Biological Results, rating): Yellow Fever Mosquito (Aedes aegypti) larvae, scored on mortality after 3 days, C = Not Tested; for YFM rating: Table ABC, species YFM, mortality scored after 3 days, C = not tested, D = no activity noticed
Description: Example C: Bioassays on Yellow Fever Mosquito “YFM” (Aedes aegypti)
Certain molecules disclosed in this document were tested against YFM using procedures described in the following paragraph. In the reporting of the results, the “YFM Rating Table” was used (See Table Section).
Master plates containing 400 μg of a molecule dissolved in 100 μL of dimethyl sulfoxide (DMSO) (equivalent to a 4000 ppm solution) are used. A master plate of assembled molecules contains 15 μL per well. To this plate, 135 μL of a 90:10 water:acetone mixture is added to each well. A robot (Biomek® NXP Laboratory Automation Workstation) is programmed to dispense 15 μL aspirations from the master plate into an empty 96-well shallow plate (“daughter” plate). There are 6 reps (“daughter” plates) created per master. The created daughter plates are then immediately infested with YFM larvae.
The day before plates are to be treated, mosquito eggs are placed in Millipore water containing liver powder to begin hatching (4 g. into 400 mL). After the daughter plates are created using the robot, they are infested with 220 μL of the liver powder/larval mosquito mixture (about 1 day-old larvae). After plates are infested with mosquito larvae, a non-evaporative lid is used to cover the plate to reduce drying. Plates are held at room temperature for 3 days prior to grading. After 3 days, each well is observed and scored based on mortality.

[7] = read-out: BAW (Biological Results, rating)
[8] = read-out: GPA (Biological Results, rating)
[9] = read-out: CL (Biological Results, rating)

| SMILES | pest or weed control at 50 µg/cm2 [1, 7] [%] | mortality at 0.0005 ppm [2] [%] | pest or weed control at 200 µg/mL [3, 8] [%] | pest or weed control at 50 µg/cm2 [4, 9] [%] | mortality at 5e-05 ppm [5] [%] | YFM (Biological Results, rating) [6] | YFM rating [6] | pest or weed control at 50 µg/cm2 ([1]; read-out: BAW rating) [%] | pest or weed control at 200 µg/mL ([3]; read-out: GPA rating) [%] | pest or weed control at 50 µg/cm2 ([4]; read-out: CL rating) [%] |
| --- | --- | --- | --- | --- | --- | --- | --- | --- | --- | --- |
| Cc1ccc(C(F)(F)F)c(N2C(=O)CS/C2=N\C(=O)NCC(F)c2ccc(-c3ncn(-c4ccc(OC(F)(F)F)cc4)n3)cc2)c1 (stereo not shown) [Compound H2] | 50 to 100 | 51 to 100 | 80 to 100 | 50 to 100 | 51 to 100 |  |  |  |  |  |
| Cc1ccc(C(F)(F)F)c(N2C(=O)CS/C2=N\C(=O)NCCc2ccc(-c3ncn(-c4ccc(OC(F)(F)F)cc4)n3)cc2)c1 [Compound H1] | 50 to 100 | 16 to 50 | 0 to 80 | 50 to 100 | 16 to 50 | A (80-100) |  |  |  |  |
| Cc1ccc(C)c(N2C(=O)CS/C2=N\C(=O)Nc2ccc(-c3ncn(-c4ccc(OC(F)(F)F)cc4)n3)cc2)c1 [Compound C2] | 50 to 100 | 0 to 15 | 0 to 80 | 50 to 100 | 0 to 15 |  |  |  |  |  |
| Cc1ccc(C(F)(F)F)c(N2C(=O)CS/C2=N\C(=O)Nc2ccc(-c3ncn(-c4ccc(OC(F)(F)F)cc4)n3)cc2)c1 [Compound H20] | 50 to 100 | 16 to 50 | 0 to 80 | 50 to 100 | 51 to 100 |  |  |  |  |  |
| Cc1ccc(COCC(F)(F)F)c(N2C(=O)CS/C2=N\C(=O)Nc2ccc(-c3ncn(-c4ccn(CC(F)(F)F)c(=O)c4)n3)cc2F)c1 [Compound J751, (Z)-1-(2-Fluoro-4-(1-(2-oxo-1-(2,2,2-trifluoroethyl)-1,2-dihydropyridin-4-yl)-1H-1,2,4-triazol-3-yl)phenyl)-3-(3-(5-methyl-2-((2,2,2-trifluoroethoxy)methyl)phenyl)-4-oxothiazolidin-2-ylidene)urea] |  |  |  |  |  |  | A (80-100) | 50 to 100 | 0 to 80 | 50 to 100 |
| Cc1cc(-c2cn(-c3ccc(C(F)(F)F)cn3)cn2)ccc1NC(=O)/N=C1\SCC(=O)N1c1cc(N(C)C)ccc1C(C)C [Compound J510, (Z)-1-(3-(5-(Dimethylamino)-2-isopropylphenyl)-4-oxothiazolidin-2-ylidene)-3-(2-methyl-4-(1-(5-(trifluoromethyl)pyridin-2-yl)-1H-imidazol-4-yl)phenyl)urea] |  |  |  |  |  |  | A (80-100) | 50 to 100 | 0 to 80 | 50 to 100 |
| Cc1ccc(COCc2ccccc2)c(N2C(=O)CS/C2=N\C(=O)Nc2ccc(-c3ncn(-c4ccc(C(F)(F)F)cc4)n3)cc2F)c1 [Compound J747, (Z)-1-(3-(2-((Benzyloxy)methyl)-5-methylphenyl)-4-oxothiazolidin-2-ylidene)-3-(2-fluoro-4-(1-(4-(trifluoromethyl)phenyl)-1H-1,2,4-triazol-3-yl)phenyl)urea] |  |  |  |  |  |  | A (80-100) | 50 to 100 | 0 to 80 | 50 to 100 |
| O=C(/N=C1\SCC(=O)N1c1ccccc1C(F)F)NCCc1ccc(-c2ncn(-c3ccc(OC(F)(F)F)cc3)n2)cc1 [Compound H11] | 50 to 100 |  | 0 to 80 | 50 to 100 |  | A (80-100) |  |  |  |  |
